Earlier results, collected in publication PMC3983394 (Journal of Medicinal Chemistry, 2014).

Experiments:
mice [1] = system: mice
mice [2] = system: mice; remark: listed apart in the source
mice [3] = system: mice; remark: listed apart in the source
mice [4] = system: mice; remark: listed apart in the source

Structure (SMILES): CN1CCC[C@H]1c1cccnc1 [nicotine]
- ED50 tail-flick (mice [1]): 1.3 (0.5–1.8) mg/kg
- ED50 hot-plate (mice [2]): 0.65 (0.25–0.85) mg/kg
- ED50 hypothermia (mice [3]): 1.0 (0.6–2.1) mg/kg
- ED50 spontaneous activity (mice [4]): 0.5 (0.15–0.78) mg/kg
